Test results: PubChem BioAssay AID344 (DTP/NCI, 2004)
Several values for one entry are separate records, joined by “and”; a condition that tells them apart may be missing. Identical values can stand only once. Toxic doses and inconclusive results are not listed.

Test system: mice, LPC-1 plasma cell tumor ip, median survival T/C
Assay: NCI In Vivo Anticancer Drug Screen. Data for tumor model Lieberman Plasma Cell No. 1 (LPC-1) (intraperitoneal) in unknown mice
Conditions: endpoint: median survival time, higher = longer survival
Description: The antitumor activity of compounds was measured in mice bearing transplantable tumors. Survival or tumor size were measured and the results are expressed as the measurement made in the treated group (T) divided by the measurement made in the vehicle treated control group (C). The tumor model used in this assay is Lieberman Plasma Cell No. 1 (LPC-1) (intraperitoneal) in unknown mice

O=c1[nH]c(=O)n(C2CC(O)C(CO)O2)cc1C(F)(F)F (stereo not drawn)
T/C (dose: 50.0 mg/kg/injection, schedule: Q01DX028 (sc), vehicle: water): 102 % of control
T/C (dose: 100.0 mg/kg/injection, schedule: Q01DX028 (sc), vehicle: water): 100 % of control
T/C (dose: 200.0 mg/kg/injection, schedule: Q01DX028 (sc), vehicle: water): 100 % of control
T/C (dose: 400.0 mg/kg/injection, schedule: Q01DX028 (sc), vehicle: water): 97 % of control

O=P1(N(CCCl)CCCl)NCCCO1 (stereo not drawn)
T/C (dose: 2.0 mg/kg/injection, schedule: Q01DX028 (sc), vehicle: saline): 86 % of control
T/C (dose: 3.12 mg/kg/injection, schedule: Q01DX028 (sc), vehicle: saline): 109 % of control
T/C (dose: 4.0 mg/kg/injection, schedule: Q01DX028 (sc), vehicle: saline): 100 % of control
T/C (dose: 6.0 mg/kg/injection, schedule: Q01DX028 (sc), vehicle: saline): 114 % of control
T/C (dose: 8.0 mg/kg/injection, schedule: Q01DX028 (sc), vehicle: saline): 161 % of control
T/C (dose: 8.4 mg/kg/injection, schedule: Q01DX028 (sc), vehicle: saline): 182 % of control and 184 % of control and 213 % of control
T/C (dose: 10.0 mg/kg/injection, schedule: Q01DX Z (sc), vehicle: saline): 194 % of control
T/C (dose: 12.0 mg/kg/injection, schedule: Q01DX028 (sc), vehicle: saline): 243 % of control
T/C (dose: 12.5 mg/kg/injection, schedule: Q01DX011 (sc), vehicle: saline): 190 % of control
T/C (dose: 12.5 mg/kg/injection, schedule: Q01DX024 (sc), vehicle: saline): 229 % of control
T/C (dose: 14.0 mg/kg/injection, schedule: Q01DX Z (sc), vehicle: saline): 190 % of control
T/C (dose: 15.62 mg/kg/injection, schedule: Q01DX010 (sc), vehicle: saline): 150 % of control
T/C (dose: 16.0 mg/kg/injection, schedule: Q01DX028 (sc), vehicle: saline): 167 % of control and 212 % of control
T/C (dose: 20.0 mg/kg/injection, schedule: Q01DX Z (sc), vehicle: saline): 155 % of control
T/C (dose: 23.0 mg/kg/injection, schedule: Q01DX Z (sc), vehicle: saline): 166 % of control
T/C (dose: 24.0 mg/kg/injection, schedule: Q01DX028 (sc), vehicle: saline): 114 % of control
T/C (dose: 25.0 mg/kg/injection, schedule: Q01DX011 (sc), vehicle: saline): 190 % of control
T/C (dose: 25.0 mg/kg/injection, schedule: Q01DX015 (sc), vehicle: saline): 91 % of control
T/C (dose: 25.0 mg/kg/injection, schedule: Q01DX024 (sc), vehicle: saline): 244 % of control
T/C (dose: 31.25 mg/kg/injection, schedule: Q01DX010 (sc), vehicle: saline): 186 % of control
T/C (dose: 32.0 mg/kg/injection, schedule: Q01DX028 (sc), vehicle: saline): 200 % of control and 208 % of control
T/C (dose: 39.0 mg/kg/injection, schedule: Q01DX009 (sc), vehicle: saline): 154 % of control
T/C (dose: 39.0 mg/kg/injection, schedule: Q01DX Z (sc), vehicle: saline): 150 % of control
T/C (dose: 48.0 mg/kg/injection, schedule: Q01DX028 (sc), vehicle: saline): 100 % of control
T/C (dose: 50.0 mg/kg/injection, schedule: Q01DX009 (ip), vehicle: saline): 259 % of control and 88 % of control
T/C (dose: 50.0 mg/kg/injection, schedule: Q01DX011 (sc), vehicle: saline): 190 % of control
T/C (dose: 50.0 mg/kg/injection, schedule: Q01DX015 (sc), vehicle: saline): 211 % of control
T/C (dose: 50.0 mg/kg/injection, schedule: Q01DX024 (sc), vehicle: saline): 223 % of control
T/C (dose: 64.0 mg/kg/injection, schedule: Q01DX028 (sc), vehicle: saline): 168 % of control
T/C (dose: 65.0 mg/kg/injection, schedule: Q07DX004 (sc), vehicle: saline): 197 % of control
T/C (dose: 125.0 mg/kg/injection, schedule: Q01DX010 (sc), vehicle: saline): 100 % of control
T/C (dose: 128.0 mg/kg/injection, schedule: Q01DX028 (sc), vehicle: saline): 97 % of control
T/C (dose: 180.0 mg/kg/injection, schedule: Q01DX028 (sc), vehicle: saline): 97 % of control

NC(=O)c1ccc(N)nc1
T/C (dose: 0.16 mg/kg/injection, schedule: Q01DX028 (sc), vehicle: water): 100 % of control
T/C (dose: 0.32 mg/kg/injection, schedule: Q01DX028 (sc), vehicle: water): 97 % of control
T/C (dose: 0.65 mg/kg/injection, schedule: Q01DX028 (sc), vehicle: water): 95 % of control
T/C (dose: 1.25 mg/kg/injection, schedule: Q01DX028 (sc), vehicle: water): 97 % of control
T/C (dose: 2.5 mg/kg/injection, schedule: Q01DX028 (sc), vehicle: water): 100 % of control
T/C (dose: 5.0 mg/kg/injection, schedule: Q01DX028 (sc), vehicle: water): 107 % of control
